Values quoted from earlier work, collected in patent US6696071B2, “Pre-coital and post-coital rinse with anti-viral and skin-protective zinc salts” (priority 2001, dated 2004).

Conditions: ionic dissociation in water

O=C[O-].O=C[O-].[Zn+2] [Zinc formate]
Reported pK values, pK1 (pK1): 0.6
Reported pK values, pK2 (pK2): 0.95
